The source made the active and inactive calls. The calls are words filed in the database; no cut-off is given here.
Legend:
Plasmodium falciparum [1] = experiment: Antimalarial activity against Plasmodium falciparum Dd2 assessed as inhibition of parasite growth; type: functional, organism-based
Plasmodium falciparum [2] = experiment: Antimalarial activity against Plasmodium falciparum 3D7 assessed as inhibition of parasite growth; type: functional, organism-based
Plasmodium berghei [3] = experiment: Antimalarial activity against Plasmodium berghei infected CD-1 mouse assessed as survival beyond 8 days at 256 mg/kg, sc bid; type: functional, organism-based; set-up: dose 256 mg/kg
Plasmodium falciparum [4] = experiment: Antimalarial activity against chloroquine-resistant Plasmodium falciparum Dd2 assessed as growth inhibition; type: functional, organism-based
Plasmodium berghei [5] = experiment: Antimalarial activity against Plasmodium berghei infected CD-1 mouse assessed as survival at 128 mg/kg, sc bid measured on day 31; type: functional, organism-based; set-up: dose 128 mg/kg
Plasmodium falciparum [6] = experiment: Antimalarial activity against Plasmodium falciparum delta pfpm1 assessed as growth inhibition; type: functional, organism-based
Plasmodium falciparum [7] = experiment: Antimalarial activity against Plasmodium falciparum delta pfpm3 assessed as growth inhibition; type: functional, organism-based
Plasmodium falciparum [8] = experiment: Antimalarial activity against Plasmodium falciparum delta pfpm4 assessed as growth inhibition; type: functional, organism-based
Plasmodium berghei [9] = experiment: Antimalarial activity against Plasmodium berghei infected CD-1 mouse assessed as survival beyond 8 days at 128 mg/kg, sc bid; type: functional, organism-based; set-up: dose 128 mg/kg
Plasmodium falciparum [10] = experiment: Antimalarial activity against Plasmodium falciparum delta pfpm2 assessed as growth inhibition; type: functional, organism-based
Plasmodium falciparum [11] = experiment: Antimalarial activity against Plasmodium falciparum D6 assessed as inhibition of parasite growth; type: functional, organism-based
Plasmodium falciparum [12] = experiment: Antimalarial activity against Plasmodium falciparum W2 assessed as inhibition of parasite growth; type: functional, organism-based
[13] = Inhibition of Plasmodium falciparum cysteine protease plasmepsin 2

Structure (SMILES)	EC50 (Plasmodium falciparum [1])	EC50 (Plasmodium falciparum [2])	other results
Clc1ccc(Oc2ccc(Cl)cc2NCc2ccccc2)c(Cl)c1	9.4 µM	9.7 µM	–
CN(C(=O)N(C)c1ccc(Cl)c(C(F)(F)F)c1)c1cc(Oc2ccc(Cl)cc2Cl)cc(C(F)(F)F)c1	2.4 µg/mL	1.8 µg/mL	–
O=C(Nc1cc(Cl)cc(Cl)c1)Nc1cc(C(F)(F)F)ccc1Oc1ccc(Cl)cc1Cl	0.046 µg/mL	0.047 µg/mL	–
N#Cc1ccc(NC(=O)Nc2cc(C(F)(F)F)ccc2Oc2ccc(Cl)cc2Cl)cc1C(F)(F)F	0.075 µM	0.13 µM	–
O=C(Nc1ccc(Oc2ccc(Cl)cc2O)c(Cl)c1)N1CCOCC1	100 µM	100 µM	–
O=C(Nc1ccc(-c2ccccc2)cc1)Nc1cc(C(F)(F)F)ccc1Oc1ccc(Cl)cc1Cl	0.29 µg/mL	0.29 µg/mL	–
NC(=O)c1cc(Cl)ccc1Oc1ccc(Cl)cc1Cl	60 µM	73 µM	–
O=S(=O)(Nc1cc(Cl)ccc1Oc1ccc(Cl)cc1Cl)c1ccccc1	5.1 µM	4.7 µM	–
O=C(Nc1ccc2c(c1)OCO2)Nc1cc(C(F)(F)F)ccc1Oc1ccc(Cl)cc1Cl	1.2 µg/mL	1.1 µg/mL	–
O=C(Nc1cc(C(F)(F)F)ccc1Oc1ccc(Cl)cc1Cl)Nc1cc(C(F)(F)F)ccc1N1CCCCC1	2.7 µg/mL	3.9 µg/mL	–
N#Cc1ccc(NC(=O)Nc2cc(C(F)(F)F)ccc2Oc2ccc(Cl)cc2Cl)cc1C#N	0.14 µM	0.081 µM	–
O=C(Nc1cc(C(F)(F)F)cc(C(F)(F)F)c1)Nc1cc(C(F)(F)F)ccc1Oc1ccc(Cl)cc1Cl	0.044 µg/mL	0.037 µg/mL	–
CS(=O)(=O)Nc1cc(Cl)ccc1Oc1ccc(Cl)cc1Cl	60 µM	38 µM	–
O=C(Nc1cc(C(F)(F)F)ccc1Oc1ccc(Cl)cc1Cl)Nc1cccc2ccccc12	0.81 µM	1.2 µM	Survival (Plasmodium berghei [3]): inactive
COc1ccc(NC(=O)Nc2cc(C(F)(F)F)ccc2Oc2ccc(Cl)cc2Cl)cc1C(F)(F)F	0.18 µM	0.18 µM	–
NC(=O)Nc1cc(Cl)ccc1Oc1ccc(Cl)cc1Cl	18 µM	18 µM	–
O=C(Nc1cc(C(F)(F)F)ccc1Oc1ccc(Cl)cc1Cl)NC1c2ccccc2-c2ccccc21	1.4 µg/mL	0.8 µg/mL	–
COc1cc(Cl)ccc1Oc1ccc(Cl)cc1Cl	76 µM	100 µM	–
O=C(Nc1ccc(Cl)c(Cl)c1)Nc1cc(Cl)ccc1Oc1ccc(Cl)cc1Cl	2.5 µM	1.9 µM	Survival (Plasmodium berghei [3]): inactive
O=C(Nc1ccc(Cc2ccccc2)cc1)Nc1cc(C(F)(F)F)ccc1Oc1ccc(Cl)cc1Cl	0.3 µg/mL	0.6 µg/mL	–
O=C(Nc1ccc(Cl)c(Cl)c1)Nc1cc(C(F)(F)F)ccc1Oc1ccc(Cl)cc1Cl	0.2 µM	0.2 µM	–
CC(C)(N)c1cc(Cl)ccc1Oc1ccc(Cl)cc1Cl	1.8 µM	7.2 µM	–
O=C(Nc1ccc(Cc2ccccc2)cc1)Nc1ccc(Oc2ccc(Cl)cc2Cl)c(C(F)(F)F)c1	1.2 µg/mL	1.3 µg/mL	–
O=C(Nc1cccc(Cc2ccccc2)c1)Nc1cc(C(F)(F)F)ccc1Oc1ccc(Cl)cc1Cl	0.3 µg/mL	0.3 µg/mL	–

Structure (SMILES)	EC50 (Plasmodium falciparum [1])	EC50 (Plasmodium falciparum [2])	other results
N#Cc1cccc(NC(=O)Nc2cc(C(F)(F)F)ccc2Oc2ccc(Cl)cc2Cl)c1	0.14 µg/mL	0.14 µg/mL	–
O=C(O)c1cc(Cl)ccc1Oc1ccc(Cl)cc1Cl	> 150 µM	> 150 µM	–
O=C(Nc1ccc(Oc2ccc(Cl)cc2Cl)c(C(F)(F)F)c1)Nc1ccccc1Cc1ccccc1	0.6 µg/mL	0.5 µg/mL	–
CN(C)c1ccc(NC(=O)Nc2cc(C(F)(F)F)ccc2Oc2ccc(Cl)cc2Cl)cc1	1.8 µg/mL	1.4 µg/mL	–
O=C(Nc1cccc(Oc2ccccc2)c1)Nc1cc(C(F)(F)F)ccc1Oc1ccc(Cl)cc1Cl	0.2 µg/mL	0.3 µg/mL	–
NC(=O)Nc1ccc(Oc2ccc(Cl)cc2O)c(Cl)c1	100 µM	100 µM	–
O=C(Nc1cccc(S(=O)(=O)C(F)(F)F)c1)Nc1cc(C(F)(F)F)ccc1Oc1ccc(Cl)cc1Cl	0.077 µg/mL	0.077 µg/mL	–
O=C(Nc1cc(C(F)(F)F)ccc1Oc1ccc(Cl)cc1Cl)Nc1ccccc1-c1ccccc1	0.9 µg/mL	0.6 µg/mL	–
O=C(Nc1ccc(Cl)c(C(F)(F)F)c1)Nc1cc(C(F)(F)F)ccc1Oc1ccc(Cl)cc1Cl	0.055 µM	0.037 µM	IC50 (Plasmodium falciparum [4]): 0.042 µM; IC90 (Plasmodium falciparum [4]): 0.083 µM; Survival (Plasmodium berghei [5]): inactive; IC50 (Plasmodium falciparum [6]): 0.07 µM; IC90 (Plasmodium falciparum [6]): 0.088 µM; IC50 (Plasmodium falciparum [7]): 0.035 µM; IC90 (Plasmodium falciparum [7]): 0.07 µM; IC50 (Plasmodium falciparum [8]): 0.066 µM; IC90 (Plasmodium falciparum [8]): 0.086 µM; Survival (Plasmodium berghei [9]): Active; IC50 (Plasmodium falciparum [10]): 0.07 µM; IC90 (Plasmodium falciparum [10]): 0.088 µM
NCc1cc(Cl)ccc1Oc1ccc(Cl)cc1Cl	4.3 µM	2.3 µM	–
Nc1ccc(NC(=O)Nc2cc(C(F)(F)F)ccc2Oc2ccc(Cl)cc2Cl)cc1C(F)(F)F	3.6 µM	1.5 µM	–
Nc1cc(Cl)ccc1Oc1ccc(Cl)cc1Cl	55 µM	52 µM	–
O=C(Nc1ccc(Cl)cc1)Nc1cc(Cl)ccc1Oc1ccc(Cl)cc1Cl	5 µM	2 µM	Survival (Plasmodium berghei [3]): inactive
N=C(N)c1ccc(NC(=O)Nc2ccc(Oc3ccccc3)cc2)cc1	–	–	EC50 (Plasmodium falciparum [11]): 0.46 µM; EC50 (Plasmodium falciparum [12]): 0.087 µM; IC50 [13]: 17 µM
O=C(Nc1ccc(F)c(C(F)(F)F)c1)Nc1cc(C(F)(F)F)ccc1Oc1ccc(Cl)cc1Cl	0.15 µM	0.13 µM	–
O=C(Nc1ccc2ccccc2c1)Nc1cc(C(F)(F)F)ccc1Oc1ccc(Cl)cc1Cl	0.41 µM	0.61 µM	Survival (Plasmodium berghei [3]): inactive
CC(=O)Nc1cc(Cl)ccc1Oc1ccc(Cl)cc1Cl	48 µM	33 µM	–
N#Cc1ccc(NC(=O)Nc2cc(C(F)(F)F)ccc2Oc2ccc(Cl)cc2Cl)cc1	0.11 µg/mL	0.14 µg/mL	–
O=C(NCc1ccco1)Nc1cc(C(F)(F)F)ccc1Oc1ccc(Cl)cc1Cl	2.6 µg/mL	2.3 µg/mL	–
O=C(Nc1ccccc1)Nc1cc(Cl)ccc1Oc1ccc(Cl)cc1Cl	1.2 µM	0.73 µM	–
O=C(Nc1cccnc1)Nc1cc(C(F)(F)F)ccc1Oc1ccc(Cl)cc1Cl	1 µg/mL	0.6 µg/mL	–
O=C(Nc1ccc([N+](=O)[O-])c(C(F)(F)F)c1)Nc1cc(C(F)(F)F)ccc1Oc1ccc(Cl)cc1Cl	0.072 µM	0.072 µM	–
N#Cc1cc(Cl)ccc1Oc1ccc(Cl)cc1Cl	43 µM	20 µM	–
